Assay [1] addresses T1, S7.1R (Dj-S7.1R) (Dugesia japonica, UniProt O15969).
T1 sequence (O15969 1-478): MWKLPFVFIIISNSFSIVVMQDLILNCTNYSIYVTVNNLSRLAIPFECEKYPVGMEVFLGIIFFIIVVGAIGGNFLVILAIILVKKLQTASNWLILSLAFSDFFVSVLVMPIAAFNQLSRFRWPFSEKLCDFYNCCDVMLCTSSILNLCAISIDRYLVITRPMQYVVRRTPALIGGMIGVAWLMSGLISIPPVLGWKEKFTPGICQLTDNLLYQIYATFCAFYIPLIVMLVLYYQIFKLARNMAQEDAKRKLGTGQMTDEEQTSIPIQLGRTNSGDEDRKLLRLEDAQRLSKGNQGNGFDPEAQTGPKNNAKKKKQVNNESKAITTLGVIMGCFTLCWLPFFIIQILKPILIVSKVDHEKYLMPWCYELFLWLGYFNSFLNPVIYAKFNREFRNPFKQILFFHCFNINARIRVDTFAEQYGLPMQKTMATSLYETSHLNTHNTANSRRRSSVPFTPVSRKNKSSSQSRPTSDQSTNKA
Put plainly: GloSensor cAMP luminescence in transfected HEK293 cells, peak amplitude. In kind it is cell-based.

Assay [2] addresses T1, S7.1R (Dj-S7.1R). The class given is cell-based.

Experimental findings from paper PMC5196488 (International Journal for Parasitology: Drugs and Drug …, 2016) are described below.

What is called EC50 is the concentration at which the effect is half-maximal. A higher EC50 goes with a less potent agent. Consider `NCCc1c[nH]c2ccc(O)cc12` [5-HT], for which, at S7.1R (Dj-S7.1R) [1], the EC50 worked out at 82 ± 5 nM.
For orientation: IC50 means the concentration that inhibits the measured activity by half. `CC(C)C[C@H]1C(=O)N2CCC[C@H]2[C@]2(O)O[C@](NC(=O)[C@@H]3C=C4c5cccc6[nH]c(Br)c(c56)C[C@H]4N(C)C3)(C(C)C)C(=O)N12` [bromocriptine]: the IC50 against S7.1R (Dj-S7.1R) [2] stood at 1800 ± 500 nM.
